According to ChEMBL document CHEMBL1201862, “PubChem BioAssay data set” (2004):
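Assay format: 96-well plates, 48-hour exposure. GI50 = concentration required for 50% inhibition of growth.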 Calls of active or inactive are those of the source. No stated cut-off is given here; in the data, active = GI50 up to about 1.1 µM and inactive = higher.

What was measured:
Experiment in all cases: NCI anticancer screen, dose series, 48 h
PC-3 = system: PC-3
DU-145 = system: DU-145
NCI/ADR-RES = system: NCI/ADR-RES
Hs-578T = system: Hs-578T
A549 = system: A549
OVCAR-3 = system: OVCAR-3
EKVX = system: EKVX
SK-MEL-5 = system: SK-MEL-5
MDA-MB-435 = system: MDA-MB-435
A498 = system: A498
NCI-H460 = system: NCI-H460
SF-268 = system: SF-268
HT-29 = system: HT-29
U-251 = system: U-251
HCT-15 = system: HCT-15
SK-MEL-28 = system: SK-MEL-28
CCRF-CEM = system: CCRF-CEM
HL-60 = system: HL-60
SF-539 = system: SF-539

O=c1[nH]c2c(S)nc(O)nc2n1-c1ccccc1
GI50 (PC-3): > 100 µM (inactive) | GI50 (DU-145): > 100 µM (inactive) | GI50 (NCI/ADR-RES): > 100 µM (inactive) | GI50 (Hs-578T): > 100 µM (inactive) | GI50 (A549): > 100 µM (inactive) | GI50 (OVCAR-3): > 100 µM (inactive) | GI50 (EKVX): > 100 µM (inactive) | GI50 (SK-MEL-5): > 100 µM (inactive) | GI50 (MDA-MB-435): > 100 µM (inactive) | GI50 (A498): > 100 µM (inactive) | GI50 (NCI-H460): > 100 µM (inactive) | GI50 (SF-268): > 100 µM (inactive) | GI50 (HT-29): > 100 µM (inactive) | GI50 (U-251): > 100 µM (inactive) | GI50 (HCT-15): > 100 µM | GI50 (SK-MEL-28): > 100 µM (inactive)

c1ccc2/c3[nH]/c(c2c1)=N\c1ccc(cc1)-c1nc2cc(ccc2o1)/N=c1/[nH]/c(c2ccccc12)=N/c1ccc2nc(oc2c1)-c1ccc(cc1)\N=3
GI50 (PC-3): > 100 µM (inactive) | GI50 (DU-145): > 100 µM (inactive) | GI50 (NCI/ADR-RES): 32.1 µM (inactive) | GI50 (CCRF-CEM): > 100 µM (inactive) | GI50 (Hs-578T): > 100 µM (inactive) | GI50 (HL-60): > 100 µM (inactive) | GI50 (EKVX): > 100 µM (inactive) | GI50 (SK-MEL-5): > 100 µM (inactive) | GI50 (MDA-MB-435): 42.4 µM (inactive) | GI50 (A498): > 100 µM (inactive) | GI50 (NCI-H460): 51.8 µM (inactive) | GI50 (SF-268): > 100 µM (inactive) | GI50 (HT-29): 49.4 µM (inactive) | GI50 (U-251): > 100 µM (inactive) | GI50 (HCT-15): > 100 µM | GI50 (SK-MEL-28): > 100 µM (inactive)

COc1ccc(CN2C(=O)CCC/C=C\[C@H]2CI)cc1
GI50 (SF-539): 13.6 µM (inactive) | GI50 (PC-3): 8.07 µM (inactive) | GI50 (DU-145): 13.3 µM (inactive) | GI50 (NCI/ADR-RES): 13.7 µM (inactive) | GI50 (Hs-578T): 14.2 µM (inactive) | GI50 (A549): 10 µM (inactive) | GI50 (OVCAR-3): 11.6 µM (inactive) | GI50 (EKVX): 10.7 µM (inactive) | GI50 (SK-MEL-5): 12.6 µM (inactive) | GI50 (MDA-MB-435): 12.7 µM (inactive) | GI50 (A498): 12.5 µM (inactive) | GI50 (NCI-H460): 13.1 µM (inactive) | GI50 (SF-268): 13.4 µM (inactive) | GI50 (HT-29): 9.71 µM (inactive) | GI50 (U-251): 13.6 µM (inactive) | GI50 (HCT-15): 12.4 µM | GI50 (SK-MEL-28): 12.6 µM (inactive)

CC(=O)N1CCOC12N=NC(C)(C)O2 (stereo not given)
GI50 (SF-539): > 100 µM (inactive) | GI50 (PC-3): > 100 µM (inactive) | GI50 (DU-145): > 100 µM (inactive) | GI50 (NCI/ADR-RES): > 100 µM (inactive) | GI50 (Hs-578T): > 100 µM (inactive) | GI50 (A549): > 100 µM (inactive) | GI50 (OVCAR-3): > 100 µM (inactive) | GI50 (EKVX): > 100 µM (inactive) | GI50 (SK-MEL-5): > 100 µM (inactive) | GI50 (MDA-MB-435): > 100 µM (inactive) | GI50 (A498): > 100 µM (inactive) | GI50 (NCI-H460): > 100 µM (inactive) | GI50 (SF-268): > 100 µM (inactive) | GI50 (HT-29): > 100 µM (inactive) | GI50 (U-251): > 100 µM (inactive) | GI50 (HCT-15): > 100 µM | GI50 (SK-MEL-28): > 100 µM (inactive)

COC(C/C(=C/CO[Si](C(C)C)(C(C)C)C(C)C)C(=O)N(COCC[Si](C)(C)C)c1ccccc1I)OC
GI50 (PC-3): 28.4 µM (inactive) | GI50 (DU-145): > 100 µM (inactive) | GI50 (NCI/ADR-RES): > 100 µM (inactive) | GI50 (CCRF-CEM): 22.7 µM (inactive) | GI50 (Hs-578T): 48.2 µM (inactive) | GI50 (A549): 37.2 µM (inactive) | GI50 (OVCAR-3): 17.8 µM (inactive) | GI50 (SK-MEL-5): 20.1 µM (inactive) | GI50 (MDA-MB-435): 5.53 µM (inactive) | GI50 (A498): > 100 µM (inactive) | GI50 (NCI-H460): 33.4 µM (inactive) | GI50 (HT-29): 60.3 µM (inactive) | GI50 (U-251): 22.8 µM (inactive) | GI50 (HCT-15): 41.1 µM | GI50 (SK-MEL-28): 14 µM (inactive)

CC1(C)O[C@@H]2[C@@H](COC(=O)c3ccccc3)C[C@@H](C#N)[C@@H]2O1
GI50 (SF-539): > 100 µM (inactive) | GI50 (PC-3): > 100 µM (inactive) | GI50 (DU-145): > 100 µM (inactive) | GI50 (NCI/ADR-RES): > 100 µM (inactive) | GI50 (CCRF-CEM): > 100 µM (inactive) | GI50 (Hs-578T): 29.2 µM (inactive) | GI50 (A549): > 100 µM (inactive) | GI50 (HL-60): > 100 µM (inactive) | GI50 (OVCAR-3): > 100 µM (inactive) | GI50 (SK-MEL-5): > 100 µM (inactive) | GI50 (MDA-MB-435): > 100 µM (inactive) | GI50 (A498): > 100 µM (inactive) | GI50 (NCI-H460): > 100 µM (inactive) | GI50 (SF-268): > 100 µM (inactive) | GI50 (HT-29): > 100 µM (inactive) | GI50 (U-251): > 100 µM (inactive) | GI50 (HCT-15): > 100 µM | GI50 (SK-MEL-28): > 100 µM (inactive)

OCCOCCO[P+]1(OCCOCCO)n2c3ccc2C(c2ccccc2)=C2C=CC(=N2)C(c2ccccc2)=c2ccc(n21)=C(c1ccccc1)C1=NC(=C3c2ccccc2)C=C1
GI50 (SF-539): 0.188 µM (active) | GI50 (PC-3): 0.107 µM (active) | GI50 (DU-145): 0.112 µM (active) | GI50 (NCI/ADR-RES): 7.14 µM (inactive) | GI50 (CCRF-CEM): 0.0231 µM (active) | GI50 (Hs-578T): 0.127 µM (active) | GI50 (A549): 0.113 µM (active) | GI50 (HL-60): 0.0235 µM (active) | GI50 (OVCAR-3): 0.033 µM (active) | GI50 (EKVX): 0.32 µM (active) | GI50 (SK-MEL-5): 0.0506 µM (active) | GI50 (MDA-MB-435): 0.0316 µM (active) | GI50 (A498): 8.57 µM (inactive) | GI50 (NCI-H460): 0.076 µM (active) | GI50 (SF-268): 0.0618 µM (active) | GI50 (HT-29): 0.0845 µM (active) | GI50 (HCT-15): 1.51 µM | GI50 (SK-MEL-28): 0.0631 µM (active)

Cc1ccc(S(=O)(=O)NCCCCC(N)C(=O)O)cc1 (stereo not given)
GI50 (SF-539): > 100 µM (inactive) | GI50 (PC-3): > 100 µM (inactive) | GI50 (DU-145): > 100 µM (inactive) | GI50 (NCI/ADR-RES): > 100 µM (inactive) | GI50 (CCRF-CEM): > 100 µM (inactive) | GI50 (Hs-578T): > 100 µM (inactive) | GI50 (A549): > 100 µM (inactive) | GI50 (OVCAR-3): > 100 µM (inactive) | GI50 (EKVX): > 100 µM (inactive) | GI50 (SK-MEL-5): > 100 µM (inactive) | GI50 (MDA-MB-435): > 100 µM (inactive) | GI50 (A498): > 100 µM (inactive) | GI50 (NCI-H460): > 100 µM (inactive) | GI50 (SF-268): > 100 µM (inactive) | GI50 (HT-29): > 100 µM (inactive) | GI50 (U-251): > 100 µM (inactive) | GI50 (HCT-15): > 100 µM | GI50 (SK-MEL-28): > 100 µM (inactive)
